Legend:
[1] = target: T1, human AR (androgen receptor) (Homo sapiens, UniProt P10275); assay: Nuclear hormone receptor binding assay, AR
T1 construct: expressed in transfected cells; host or cells: HEK293 (lysate, '293-AR lysate')
T1 sequence (P10275 1-920): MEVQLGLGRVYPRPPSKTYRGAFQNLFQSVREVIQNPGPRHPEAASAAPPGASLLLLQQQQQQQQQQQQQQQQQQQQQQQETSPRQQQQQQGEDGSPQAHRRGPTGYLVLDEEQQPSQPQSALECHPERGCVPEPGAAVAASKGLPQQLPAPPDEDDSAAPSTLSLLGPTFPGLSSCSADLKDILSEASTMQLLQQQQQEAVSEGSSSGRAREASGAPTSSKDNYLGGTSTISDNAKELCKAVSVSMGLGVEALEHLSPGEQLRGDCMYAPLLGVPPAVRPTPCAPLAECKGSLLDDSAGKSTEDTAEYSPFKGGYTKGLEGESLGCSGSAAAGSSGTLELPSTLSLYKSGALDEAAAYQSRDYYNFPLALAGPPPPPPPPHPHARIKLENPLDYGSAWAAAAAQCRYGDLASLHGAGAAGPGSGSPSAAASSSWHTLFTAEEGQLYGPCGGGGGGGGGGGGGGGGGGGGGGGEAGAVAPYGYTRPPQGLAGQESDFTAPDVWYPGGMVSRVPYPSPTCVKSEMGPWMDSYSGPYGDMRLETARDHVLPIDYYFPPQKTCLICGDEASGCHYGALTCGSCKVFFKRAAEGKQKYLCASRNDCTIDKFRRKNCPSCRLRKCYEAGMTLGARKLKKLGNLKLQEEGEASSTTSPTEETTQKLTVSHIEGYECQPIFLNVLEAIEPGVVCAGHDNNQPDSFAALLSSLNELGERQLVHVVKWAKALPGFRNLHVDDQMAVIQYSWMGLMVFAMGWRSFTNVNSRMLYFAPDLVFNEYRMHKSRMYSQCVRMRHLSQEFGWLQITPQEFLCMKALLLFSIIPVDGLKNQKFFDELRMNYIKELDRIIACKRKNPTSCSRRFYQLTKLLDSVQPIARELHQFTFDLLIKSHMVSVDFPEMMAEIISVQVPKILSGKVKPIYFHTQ
Method: Cell lysates from human embryonic kidney HEK293 cells overexpressing human GR (glucocorticoid receptor), AR (androgen receptor), MR (mineralocorticoid receptor), or PR (progesterone receptor) are used for receptor-ligand competition binding assays to determine Ki values.
Briefly, steroid receptor competition binding assays are run in a buffer containing 20 mM Hepes buffer (pH=7.6), 0.2 mM EDTA, 75 mM NaCl, 1.5 mM MgCl2, 20% glycerol, 20 mM sodium molybdate, 0.2 mM DTT (dithiothreitol), 20 μg/mL aprotinin and 20 μg/mL leupeptin. Typically, steroid receptor binding assays include radio-labeled ligands, such as 0.3 nM [^3H]-dexamethasone for GR binding, 0.36 nM [^3H]-methyltrienolone for AR binding, 0.25 nM [^3H]-aldosterone for MR binding, and 0.29 nM [^3H]-methyltrienolone for PR binding, and either 20 μg 293-GR lysate, 22 μg 293-AR lysate, 20 μg 293-MR lysate or 40 μg 293-PR lysate per well. Assays are typically run in 96-well format. Competing test compounds are added at various concentrations ranging from about 0.01 nM to 10 μM. Non-specific binding is determined in the presence of 500 nM dexamethasone for GR binding, 500 nM aldosterone for MR binding, or 500 nM methyltrienolone for AR and PR binding. […] After an incubation of 2 hours, plates are read in a Wallac Microbeta counter. […]

[2] = system: LPS-stimulated TNF-α production in PMA-differentiated U937 cells; assay: GR-mediated transrepression: LPS-stimulated TNF-α production in PMA-differentiated U937 cells; format: cell-based; conditions: Homo sapiens, U-937, mean of 6 determinations, read-out: EC50, inhibition of TNF-α expression
Method: 2. LPS-Stimulated TNF-α Production in PMA-Differentiated U937 Cells:
Human U937 pre-monocytic cells (ATCC Catalog #CRL-1593.2) are grown in complete RPMI 1640 medium (ATCC Catalog #30-2001) containing 10% fetal bovine serum (FBS). To allow monocytes to differentiate to adherent macrophages, U937 cells are washed in PBS (Calcium, magnesium-free) and resuspended in fresh RPMI medium containing 20 nM phorbol 12-myristate-13-acetate (PMA) overnight. After differentiation, test compounds are added to the cells in the 96-well plate at various concentrations ranging from about […] to 4.64 μM. 1-hour post treatment with test compound, LPS is added at final concentration of 100 ng/mL and the reaction mixture is incubated overnight.
TNF-α production is measured with an ELISA kit (R&D Systems, Inc., Minneapolis, Minn., U.S.A.) using standard techniques. Briefly, 25 μL cell-free supernatant is transferred to another 96-well plate and 75 μL of assay buffer is added. TNF-α is quantified by reading absorbance at 450 nm. A standard curve of absorbance versus TNF-α concentration is constructed and used to determine the concentration of TNF-α in experimental samples.

- Ki ([1]; HEK293 cell lysate expressing human AR, [3H]-methyltrienolone, mean of 5 determinations): 16.2 nM
- greater affinity for GR relative to AR ([1]; binding selectivity GR vs AR): ≥ 30 fold
- EC50 [2]: ~30 nM
SMILES: CC/C(=C1\c2ccc(Cl)cc2OCc2ncccc21)c1cccc(NS(C)(=O)=O)c1 [Compound (I), (E)-N-{3-[1-(8-Chloro-11H-10-oxa-1-aza-dibenzo[a,d]cyclohepten-5-ylidene)-propyl]-phenyl}-methanesulfonamide]

From US8101760B2, “Glucocorticoid receptor modulator and methods of use” (Eli Lilly and Company, priority 2007, dated 2012)
